pEC50: −log10 of the molar value. Read-outs that look alike come from different tables or passages of the source.
How the values were obtained:
HRV (2) = test: Antirhinoviral H1-HeLa cell culture assay, HRV serotype 2; format: cell-based, human rhinovirus; conditions: H1-HeLa cells, XTT
Method: (§1) In this cell protection assay, the ability of compounds to protect cells against HRV infection was measured by the XTT dye reduction method, which is described in Weislow et al., J. Natl. Cancer Inst. 1989, vol. 81, 577-586.
(§2) H1-HeLa cells were infected with HRV-14 at a multiplicity of infection (m.o.i.) of 0.13 (virus particles/cell) or mock-infected with medium only. Infected or mock-infected cells were resuspended at 8×10^5 cells per mL, and incubated with appropriate concentrations of the compounds to be tested. Two days later, XTT/PMS was added to test plates and the amount of formazan produced was quantified spectrophotometrically at 450/650 nm. The EC50 value was calculated as the concentration of compound that increased the percentage of formazan production in compound-treated, virus-infected cells to 50% of that produced by compound-free, mock-infected cells. The 50% cytotoxic dose (CC50) was calculated as the concentration of compound that decreased the percentage of formazan produced in compound-treated, mock-infected cells to 50% of that produced by compound-free, mock-infected cells. The therapeutic index (TI) was calculated by dividing the CC50 value by the EC50 value.
(§3) All strains of human rhinovirus (HRV) for use in this assay were purchased from American Type Culture Collection (ATCC), except for HRV serotype-14 (produced from the infectious cDNA clone constructed by Dr. Robert Rueckert, Institute for Molecular Virology, University of Wisconsin, Madison, Wis.). HRV stocks were propagated and viral assays were performed in H1-HeLa cells (ATCC). Cells were grown in minimal essential medium with 10% fetal bovine serum, available from Life Technologies (Gaithersburg, Md.).
(§4) The compounds were tested against control compounds WIN 51711, WIN 52084, and WIN 54954 (obtained from Sterling-Winthrop Pharmaceuticals), Pirodavir (obtained from Janssen Pharmaceuticals), and Pleconaril (prepared according to the method described in Diana et al., J. Med. Chem 1995, vol. 38, 1355). Antiviral data obtained for the test compounds are shown in Tables 1 and 3, where all data are for HRV serotype-14 unless otherwise noted in parentheses.

HRV (89) = test: Antirhinoviral H1-HeLa cell culture assay, HRV serotype 89; format: cell-based, human rhinovirus; conditions: H1-HeLa cells, XTT
Method: as §1, §2, §3, §4

[1] = target: T1, rhinovirus 3C protease from HRV serotype-14 (Human rhinovirus 14, UniProt P03303); test: Inhibition of rhinovirus 3C protease (FRET assay), serotype 14; format: biochemical; conditions: HRV serotype-14 3C protease; progress curves in enzyme start experiments; read-out: Protease Inhibition kobs/[I]
T1 construct: Recombinant rhinovirus 3C proteases; made in house
Method: Stock solutions (50 mM, in DMSO) of various compounds were prepared; dilutions were in the same solvent. Recombinant rhinovirus 3C proteases (see Birch et al., “Purification of recombinant human rhinovirus 14 3C protease expressed in Escherichia coli,” Protein Expr. Pur. 1995, 6(5), 609-618) from serotypes 14, 16, and 2 were prepared by the following standard chromatographic procedures: (1) ion exchange using Q Sepharose Fast Flow from Pharmacia; (2) affinity chromatography using Affi-Gel Blue from Biorad; and (3) sizing using Sephadex G-100 from Pharmacia. Each assay sample contained 2% DMSO, 50 mM tris pH 7.6, 1 mM EDTA, a test compound at the indicated concentration, approximately 1 μM substrate, and 50-100 nM protease. The kobs/I values were obtained from reactions initiated by addition of enzyme rather than substrate. RVP activity was measured in the fluorescence resonance energy transfer assay. The substrate was (N-terminal) DABCYL-(Gly-Arg-Ala-Val-Phe-Gln-Gly-Pro-Val-Gly)-EDANS. In the uncleaved peptide, the EDANS fluorescence was quenched by the proximal DABCYL moiety. When the peptide was cleaved, the quenching was relieved, and activity was measured as an increase in fluorescence signal. In Table 1, all data are for rhinovirus 3C protease from HRV serotype-14 (produced from the infectious cDNA clone constructed by Dr. Robert Rueckert, Institute for Molecular Virology, University of Wisconsin, Madison, Wis.). […] The data in the column designated kobs/[I] were measured from progress curves in enzyme start experiments.

HRV (1A) = test: Antirhinoviral H1-HeLa cell culture assay, HRV serotype 1A; format: cell-based; conditions: Human rhinovirus sp., H1-HeLa cells, XTT
Method: as §1, §2, §3, §4

HRV-14 = test: Antirhinoviral H1-HeLa cell culture assay, HRV-14; format: cell-based, human rhinovirus; conditions: Rhinovirus B, HRV14, H1-HeLa, HRV serotype-14, H1-HeLa cells
Method: as §1, §2, §3, §4

HRV (39) = test: Antirhinoviral H1-HeLa cell culture assay, HRV serotype 39; format: cell-based, human rhinovirus; conditions: H1-HeLa cells, XTT
Method: as §1, §2, §3
(§5) The compounds were tested against control compounds WIN 51711, WIN 52084, and WIN 54954 (obtained from Sterling-Winthrop Pharmaceuticals), Pirodavir (obtained from Janssen Pharmaceuticals), and Pleconaril (prepared according to the method described in Diana et al., J. Med. Chem 1995, vol. 38, 1355). […]

HRV (13) = test: Antirhinoviral H1-HeLa cell culture assay, HRV serotype 13; format: cell-based, human rhinovirus; conditions: H1-HeLa cells, XTT
Method: as §1, §2, §3, §5

HRV (10) = test: Antirhinoviral H1-HeLa cell culture assay, HRV serotype 10; format: cell-based, human rhinovirus; conditions: H1-HeLa cells, XTT
Method: as §1, §2, §3, §4

HRV (17) = test: Antirhinoviral H1-HeLa cell culture assay, HRV serotype 17; format: cell-based, human rhinovirus; conditions: H1-HeLa cells, XTT
Method: as §1, §2, §3, §5

HRV (3) = test: Antirhinoviral H1-HeLa cell culture assay, HRV serotype 3; format: cell-based, human rhinovirus; conditions: H1-HeLa cells, XTT
Method: as §1, §2, §3, §5

HRV (9) = test: Antirhinoviral H1-HeLa cell culture assay, HRV serotype 9; format: cell-based, human rhinovirus; conditions: H1-HeLa cells, XTT
Method: as §1, §2, §3, §5

[2] = Cytotoxicity in mock-infected H1-HeLa cells (antirhinoviral assay, XTT); format: cell-based; conditions: human, 50% cytotoxic dose, two days
Method: as §2, §3

[3] = Table 1, XTT dye reduction, read-out: Cell Protection EC50

T1 sequence (P03303 1538-1719): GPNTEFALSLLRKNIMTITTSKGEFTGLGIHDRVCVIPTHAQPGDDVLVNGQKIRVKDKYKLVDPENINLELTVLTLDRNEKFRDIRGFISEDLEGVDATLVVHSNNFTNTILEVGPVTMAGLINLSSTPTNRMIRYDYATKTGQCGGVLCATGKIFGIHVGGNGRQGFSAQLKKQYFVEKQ

Row | pEC50 (HRV (2); Human rhinovirus sp., H1-HeLa) | pEC50 (HRV (89); Human rhinovirus sp.) | kinact/KI [1] | pEC50 (HRV (1A)) | pEC50 (HRV-14; [3]) | pEC50 (HRV-14; Table 3, XTT, read-out: EC50) | melting point | pEC50 (HRV (10); Human rhinovirus sp., H1-HeLa) | Structure (SMILES) | pEC50 (HRV (2)) | pEC50 (HRV (39)) | pEC50 (HRV (13)) | pEC50 (HRV (10)) | pEC50 (HRV (89)) | pEC50 (HRV (17)) | pEC50 (HRV (3)) | pEC50 (HRV (9)) | CC50 at 2 days [2]
1 | 6.39 | 6.66 | 260000 M⁻¹ s⁻¹ | 6.00 | 6.60 | 6.60 | – | – | CCOC(=O)/C=C/[C@H](CCC(N)=O)NC(=O)[C@H](Cc1ccccc1)NC(=O)[C@H](CC(C)C)NC(=O)c1cc(C)on1 [Compound A-1, Ethyl-3-((5′-Methylisoxazole-3′-carbonyl)-L-Leu-L-Phe-L-Gin)-E-Propenoate] | – | – | – | – | – | – | – | – | –
2 | – | – | 46900 M⁻¹ s⁻¹ | – | 5.80 | 5.80 | 217 to 220 °C | – | CCOC(=O)/C=C/[C@H](CCC(N)=O)NC(=O)[C@H](Cc1ccccc1)NC(=O)[C@H](CC(C)C)NC(=O)c1ccno1 [Compound A-2, Ethyl-3-((Isoxazole-5′-carbonyl)-L-Leu-L-Phe-L-Gln)-E-Propenoate] | – | – | – | – | – | – | – | – | –
3 | – | – | 237000 M⁻¹ s⁻¹ | 5.15 | 6.66 | 6.66 | – | 5.57 | CCOC(=O)/C=C/[C@H](CCC(N)=O)NC(=O)[C@H](Cc1ccc(C)cc1)NC(=O)[C@@H](NC(=O)C1SCCS1)C(C)(C)C [Compound A-15] | – | – | – | – | – | – | – | – | > 100000 nM
4 | – | – | 173000 M⁻¹ s⁻¹ | 5.32 | 6.35 | 6.35 | – | 5.35 | CCOC(=O)/C=C/[C@H](CCC(N)=O)NC(=O)[C@H](Cc1ccc(C)cc1)NC(=O)[C@@H](NC(=O)c1ccc[nH]1)C(C)(C)C [Compound A-16] | – | – | – | – | – | – | – | – | > 100000 nM

Row | Structure (SMILES) | pEC50 (HRV (2); Human rhinovirus sp., H1-HeLa) | pEC50 (HRV (89); Human rhinovirus sp.) | kinact/KI [1] | pEC50 (HRV (1A)) | pEC50 (HRV-14; [3]) | pEC50 (HRV-14; Table 3, XTT, read-out: EC50) | melting point | pEC50 (HRV (10); Human rhinovirus sp., H1-HeLa) | pEC50 (HRV (2)) | pEC50 (HRV (39)) | pEC50 (HRV (13)) | pEC50 (HRV (10)) | pEC50 (HRV (89)) | pEC50 (HRV (17)) | pEC50 (HRV (3)) | pEC50 (HRV (9)) | CC50 at 2 days [2]
5 | CCOC(=O)/C=C/[C@H](C[C@@H]1CCNC1=O)NC(=O)[C@H](Cc1ccc(F)cc1)NC(=O)[C@@H](NC(=O)c1cc(C)on1)C(C)(C)C [Compound A-7, Ethyl-3-{(5′-Methylisoxazole-3′-carbonyl)-L-α-(t-Butyl-Gly)-L-(4-F-Phe)-L-((S)-Pyrrol-Ala)}-E-Provenoate] | – | – | 980000 M⁻¹ s⁻¹ | – | 8.40 | – | – | – | 7.70 | 7.70 | 7.52 | 7.22 | 7.70 | 7.70 | 7.70 | 7.40 | –

— patent US20060046966A1, “Antipicornaviral compounds and compositions, their pharmaceutical uses, and materials for their synthesis” (Agouron Pharmaceuticals, Inc., priority 1998, published 2006)
